Source: patent US20030118571A1, “Oral administration of lactobacillus for the maintenance of health in women during pregnancy and at other life stages, to reduce the risk of urogenital diseases” (priority 1999, published 2003)
Like-named read-outs stand apart in the source and are kept apart here. No end group written: not given here.

How the values were obtained:
[1] = tested on: Kl. pneumoniae; test: MIC of peptides against uropathogenic microorganisms; assay type: cell-based; details: K. pneumoniae; bactericidal if less than 0.1% of original bacteria remained viable
[2] = tested on: L. rhamnosus GR-1
Experimental: (§1) Mean values obtained from three independent experiments are shown.
(§2) Action of the peptide was considered bactericidal if less than 0.1% of original number of bacteria remained viable following the treatment. Resistant organisms were also plated from the 100 μmol 1^−1 well to confirm presence of any inhibition.

[3] = tested on: L. plantarum RC-20
Experimental: as §1, §2

[4] = tested on: L. fermentum RC-14
Experimental: as §1, §2

[5] = tested on: Ps. aeruginosa; test: MIC of peptides against uropathogenic microorganisms; assay type: cell-based, Pseudomonas aeruginosa AK1; details: P. aeruginosa; bactericidal if less than 0.1% of original bacteria remained viable
[6] = tested on: Staph. epidermidis; test: as above; assay type: cell-based, Staphylococcus epidermidis 1938
[7] = tested on: E. coli; test: as above; assay type: cell-based, Escherichia coli HU734; details: bactericidal if less than 0.1% of original bacteria remained viable
[8] = tested on: L. rhamnosus 81
Experimental: as §1, §2

[9] = tested on: L. fermentum B-54
Experimental: as §1, §2

| Substance | mode of action [1] | MIC [2] | MIC [3] | MIC [4] | mode of action [5] | MIC [6] | mode of action [7] | MIC [8] | MIC [9] | susceptibility of strain to peptide ([2]; L. rhamnosus GR-1, highest concentration 100 μmol 1^−1) | susceptibility of strain to peptide ([3]; L. plantarum RC-20, highest concentration 100 μmol 1^−1) | susceptibility of strain to peptide ([4]; L. fermentum RC-14, highest concentration 100 μmol 1^−1) | susceptibility of strain to peptide ([8]; L. rhamnosus 81, highest concentration 100 μmol 1^−1) | mode of action ([9]; L. fermentum B-54) | MIC ([9]; L. fermentum B-54 as indicator organism) |
| --- | --- | --- | --- | --- | --- | --- | --- | --- | --- | --- | --- | --- | --- | --- | --- |
| SWLSKTAKKLENSAKKRISEGIAIAIQGGPR [Cecropin P1] | bacteriocidally | > 100 µM | > 100 µM | > 100 µM | bacteriocidally | >100 μmol 1^−1 M | bacteriocidally | > 100 µM | > 100 µM |  |  |  |  |  |  |
| FALL-39 (FALLGDFFRKSKEKIGKEFKRIVQRIKDFLRNLVPRTES; Antibacterial peptide FALL-39; UniProt P49913 132-170, looked up) | bacteriostatic |  |  |  | bacteriostatic | >100 μmol 1^−1 M | bactericidal |  |  | resistant | resistant | resistant | resistant | bacteriostatically | 100 µM |
